Measurements published in the supplement of paper PMC10307832.

What was measured:
Assay in all cases: relative viability (nuclei count vs DMSO), 5 days (fraction); higher = more cells survive
SK-MES-1 = tested on: SK-MES-1
How it was run: (§1)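 Nuclei were stained with Hoechst during a one-step fixation (final 0.05% Triton X-100, 1% formaldehyde, 1 ug/ml Hoechst) carried out 5 days after dosing, then counted on 4× images. The cells, lung cancer lines in 1536-well plates, had been dosed by pin tool the day after seeding with one drug alone or a fixed anchor-drug dose plus five library-drug doses (not always all listed) in √10 steps. Relative viability is the nuclei count in treated wells divided by that in vehicle wells, and each value is the median of duplicate plates.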

LU99A = tested on: LU99A
How it was run: as §1

LK-2 = tested on: LK-2
How it was run: as §1

ChaGo-K-1 = tested on: ChaGo-K-1
How it was run: as §1

NCI-H1944 = tested on: NCI-H1944
How it was run: as §1

NCI-H650 = tested on: NCI-H650
How it was run: as §1

NCI-H661 = tested on: NCI-H661
How it was run: as §1

HCC-78 = tested on: HCC-78
How it was run: as §1

LC-2-ad = tested on: LC-2-ad
How it was run: as §1

NCI-H596 = tested on: NCI-H596
How it was run: as §1

NCI-H838 = tested on: NCI-H838
How it was run: as §1

NCI-H358 = tested on: NCI-H358
How it was run: as §1

PC-3 [JPC-3] = tested on: PC-3 [JPC-3]
How it was run: as §1

NCI-H1651 = tested on: NCI-H1651
How it was run: as §1

LCLC-97TM1 = tested on: LCLC-97TM1
How it was run: as §1

NCI-H1975 = tested on: NCI-H1975
How it was run: as §1

NCI-H1355 = tested on: NCI-H1355
How it was run: as §1

NCI-H2342 = tested on: NCI-H2342
How it was run: as §1

LXF-289 = tested on: LXF-289
How it was run: as §1

BEN = tested on: BEN
How it was run: as §1

NCI-H1666 = tested on: NCI-H1666
How it was run: as §1

`CC(=O)O[C@@]12CO[C@@H]1C[C@H](O)[C@@]1(C)C(=O)[C@H](O)C3=C(C)[C@@H](OC(=O)[C@H](O)[C@@H](NC(=O)OC(C)(C)C)c4ccccc4)C[C@@](O)([C@@H](OC(=O)c4ccccc4)[C@H]21)C3(C)C` [Docetaxel] + Cc1cc(Nc2cc(N3CCN(C)CC3)nc(Sc3ccc(NC(=O)C4CC4)cc3)n2)n[nH]1 [Tozasertib] (partner 0.1 µM) gave a relative viability (SK-MES-1; first compound 0.0002 µM) of 0.974, a relative viability (SK-MES-1; first compound 0.000632 µM) of 0.459 and a relative viability (SK-MES-1; first compound 0.002 µM) of 0.252. The relative viability (SK-MES-1; first compound 0.006325 µM) was 0.166, the relative viability (SK-MES-1; first compound 0.02 µM) was 0.134 and the relative viability (LU99A; first compound 0.0002 µM) was 0.262. It also gave a relative viability (LU99A; first compound 0.000632 µM) of 0.289, a relative viability (LU99A; first compound 0.002 µM) of 0.236 and a relative viability (LU99A; first compound 0.006325 µM) of 0.307. For the same compound, the relative viability (LU99A; first compound 0.02 µM) was 0.211, the relative viability (LK-2; first compound 0.0002 µM) was 0.155 and the relative viability (LK-2; first compound 0.000632 µM) was 0.215. The relative viability (LK-2; first compound 0.002 µM) was 0.157, the relative viability (LK-2; first compound 0.006325 µM) was 0.188 and the relative viability (LK-2; first compound 0.02 µM) was 0.166. The relative viability (ChaGo-K-1; first compound 0.0002 µM) was 0.218, the relative viability (ChaGo-K-1; first compound 0.002 µM) was 0.201 and the relative viability (ChaGo-K-1; first compound 0.006325 µM) was 0.199. It also gave a relative viability (ChaGo-K-1; first compound 0.02 µM) of 0.185, a relative viability (NCI-H1944; first compound 0.0002 µM) of 0.23 and a relative viability (NCI-H1944; first compound 0.000632 µM) of 0.223. It also gave a relative viability (NCI-H1944; first compound 0.002 µM) of 0.235, a relative viability (NCI-H1944; first compound 0.006325 µM) of 0.194 and a relative viability (NCI-H1944; first compound 0.02 µM) of 0.15. The relative viability (NCI-H650; first compound 0.0002 µM) was 0.666, the relative viability (NCI-H650; first compound 0.000632 µM) was 0.381 and the relative viability (NCI-H650; first compound 0.002 µM) was 0.25. It also gave a relative viability (NCI-H650; first compound 0.006325 µM) of 0.25, a relative viability (NCI-H650; first compound 0.02 µM) of 0.182 and a relative viability (NCI-H661; first compound 0.0002 µM) of 0.367. The relative viability (NCI-H661; first compound 0.000632 µM) was 0.387, the relative viability (NCI-H661; first compound 0.002 µM) was 0.432 and the relative viability (NCI-H661; first compound 0.006325 µM) was 0.352. The relative viability (NCI-H661; first compound 0.02 µM) was 0.4, the relative viability (HCC-78; first compound 0.0002 µM) was 0.386 and the relative viability (HCC-78; first compound 0.000632 µM) was 0.436. The relative viability (HCC-78; first compound 0.002 µM) was 0.278, the relative viability (HCC-78; first compound 0.006325 µM) was 0.344 and the relative viability (HCC-78; first compound 0.02 µM) was 0.368. For the same compound, the relative viability (LC-2-ad; first compound 0.0002 µM) was 0.487, the relative viability (LC-2-ad; first compound 0.000632 µM) was 0.395 and the relative viability (LC-2-ad; first compound 0.002 µM) was 0.302. The relative viability (LC-2-ad; first compound 0.006325 µM) was 0.37, the relative viability (NCI-H596; first compound 0.0002 µM) was 0.838 and the relative viability (NCI-H596; first compound 0.000632 µM) was 0.754. The relative viability (NCI-H596; first compound 0.002 µM) was 0.365, the relative viability (NCI-H596; first compound 0.006325 µM) was 0.361 and the relative viability (NCI-H596; first compound 0.02 µM) was 0.25. For the same compound, the relative viability (NCI-H838; first compound 0.0002 µM) was 0.236, the relative viability (NCI-H838; first compound 0.000632 µM) was 0.27 and the relative viability (NCI-H838; first compound 0.002 µM) was 0.258. It also gave a relative viability (NCI-H838; first compound 0.006325 µM) of 0.28, a relative viability (NCI-H838; first compound 0.02 µM) of 0.193 and a relative viability (NCI-H358; first compound 0.0002 µM) of 0.114. It also gave a relative viability (NCI-H358; first compound 0.000632 µM) of 0.112, a relative viability (NCI-H358; first compound 0.006325 µM) of 0.137 and a relative viability (NCI-H358; first compound 0.02 µM) of 0.117. It also gave a relative viability (PC-3 [JPC-3]; first compound 0.0002 µM) of 0.851, a relative viability (PC-3 [JPC-3]; first compound 0.000632 µM) of 0.78 and a relative viability (PC-3 [JPC-3]; first compound 0.002 µM) of 0.426. For the same compound, the relative viability (PC-3 [JPC-3]; first compound 0.006325 µM) was 0.209, the relative viability (PC-3 [JPC-3]; first compound 0.02 µM) was 0.118 and the relative viability (NCI-H1651; first compound 0.0002 µM) was 0.716. The relative viability (NCI-H1651; first compound 0.000632 µM) was 0.717, the relative viability (NCI-H1651; first compound 0.002 µM) was 0.187 and the relative viability (NCI-H1651; first compound 0.006325 µM) was 0.189. It also gave a relative viability (LCLC-97TM1; first compound 0.000632 µM) of 0.209, a relative viability (LCLC-97TM1; first compound 0.002 µM) of 0.191 and a relative viability (LCLC-97TM1; first compound 0.006325 µM) of 0.122. For the same compound, the relative viability (LCLC-97TM1; first compound 0.02 µM) was 0.13, the relative viability (NCI-H1975; first compound 0.0002 µM) was 0.705 and the relative viability (NCI-H1975; first compound 0.000632 µM) was 0.367. It also gave a relative viability (NCI-H1975; first compound 0.002 µM) of 0.158, a relative viability (NCI-H1975; first compound 0.006325 µM) of 0.133 and a relative viability (NCI-H1975; first compound 0.02 µM) of 0.0956. The relative viability (NCI-H1355; first compound 0.0002 µM) was 0.453, the relative viability (NCI-H1355; first compound 0.000632 µM) was 0.43 and the relative viability (NCI-H1355; first compound 0.002 µM) was 0.271. For the same compound, the relative viability (NCI-H1355; first compound 0.006325 µM) was 0.263, the relative viability (NCI-H1355; first compound 0.02 µM) was 0.202 and the relative viability (NCI-H2342; first compound 0.0002 µM) was 0.584. The relative viability (NCI-H2342; first compound 0.000632 µM) was 0.539, the relative viability (NCI-H2342; first compound 0.002 µM) was 0.543 and the relative viability (NCI-H2342; first compound 0.006325 µM) was 0.466. The relative viability (NCI-H2342; first compound 0.02 µM) was 0.297, the relative viability (LXF-289; first compound 0.0002 µM) was 0.172 and the relative viability (LXF-289; first compound 0.000632 µM) was 0.165. It also gave a relative viability (LXF-289; first compound 0.006325 µM) of 0.125, a relative viability (LXF-289; first compound 0.02 µM) of 0.114 and a relative viability (BEN; first compound 0.0002 µM) of 0.499. It also gave a relative viability (BEN; first compound 0.000632 µM) of 0.503, a relative viability (BEN; first compound 0.002 µM) of 0.473 and a relative viability (BEN; first compound 0.006325 µM) of 0.418. For the same compound, the relative viability (BEN; first compound 0.02 µM) was 0.426, the relative viability (NCI-H1666; first compound 0.0002 µM) was 0.564 and the relative viability (NCI-H1666; first compound 0.000632 µM) was 0.506. It also gave a relative viability (NCI-H1666; first compound 0.002 µM) of 0.496, a relative viability (NCI-H1666; first compound 0.006325 µM) of 0.418 and a relative viability (NCI-H1666; first compound 0.02 µM) of 0.31.
